# Values of other authors, collected in patent US20050282937A1, “Electrochemical compatibilizer and hydrophobic wetting agent for fiber reinforced vinyl esters and related thermosets” (priority 2004, published 2005).
# Where two headings read alike, the source gives them in different places.
# Legend:
# [1] = test system: Staphylococcus epidermidis; conditions: catheters of ethylvinyl acetate and polypropylene, up to 2.0 wt %, rabbits
# P. acnes = conditions: Fresh isolate from human plaque, Colgate-Palmolive data, strain 1305
# Staphlococcus aureus = conditions: Bacteria associated with polymeric medical devices
# [2] = catheters of ethylvinyl acetate and polypropylene, up to 2.0 wt %
# C. ochracea = conditions: Oral Bacteria, laboratory strain NCTC11654
# [3] = over a 24-hour period, thermoset dental compound containing 1.0 wt % additive
# [4] = test system: Peptostreptococcus micros; conditions: Fresh isolate from human plaque, Colgate-Palmolive data, strain 1422
# [5] = test system: Staphlococcus epidermidis; conditions: Bacteria associated with polymeric medical devices, strain ATCC12228
# Laboratory rats = conditions: ingestion
# Escherichia coli [6] = conditions: Bacteria associated with polymeric medical devices
# Staphlococcus hyicus = conditions: Bacteria associated with polymeric medical devices, strain ATCC27844
# Actinomyces naeslundi = conditions: Oral Bacteria
# W. recta = conditions: Fresh isolate from human plaque, Colgate-Palmolive data, strain not given
# [7] = test system: Peptococcus asacchrolyticus; conditions: Oral Bacteria, laboratory strain NCTC
# Bacteroides gingivalis = conditions: Oral Bacteria, laboratory strain 381
# Salmonella enteritidis = conditions: Bacteria associated with polymeric medical devices, strain A
# Escherichia coli [8] = conditions: catheters of ethylvinyl acetate and polypropylene, up to 2.0 wt %, rabbits
# Candida albicans = conditions: Yeast
# Steptococcus sanguis = conditions: Oral Bacteria, laboratory strain 34
# [9] = test system: Corynebacterium (Propionibacterium) acnes; conditions: Bacteria associated with polymeric medical devices, strain ATCC6919
# Listeria monocytogenes = conditions: Bacteria associated with polymeric medical devices, strain ATCC15313
# P. anaerobius = conditions: Fresh isolate from human plaque, Colgate-Palmolive data
# Streptococcus mutans [10] = conditions: Oral Bacteria, laboratory strain 6715
# S. milleri = conditions: Fresh isolate from human plaque, Colgate-Palmolive data
# Steptococcus sobrinus = conditions: Oral Bacteria, laboratory strain OMZ176
# [11] = test system: Actinobacillus actinomycesemcomitans; conditions: Oral Bacteria, laboratory strain Y4
# Actinomyces israeli = conditions: Oral Bacteria, laboratory strain NCTC8047
# Porphyromonas gingivalis = conditions: Oral Bacteria, laboratory strain OMZ309
# S. mitior = conditions: Fresh isolate from human plaque, Colgate-Palmolive data
# Capnocytophaga spp = conditions: Fresh isolate from human plaque, Colgate-Palmolive data
# Staphlococcus hominus = conditions: Bacteria associated with polymeric medical devices, strain ATCC27844
# [12] = test system: Staphlococcus saprohyticus; conditions: Bacteria associated with polymeric medical devices, strain NCTC7292
# [13] = test system: Actinomyces actinomycetemcomitans; conditions: Fresh isolate from human plaque, Colgate-Palmolive data
# Streptococcus mutans [14] = conditions: dental composite, 1.0 wt % concentration, twenty four-hour period
# [15] = test system: Actinomyces odontolyticus
# Pseudomonas aeruginosa = conditions: Bacteria associated with polymeric medical devices
# Streptococcus mitor = conditions: Oral Bacteria
# Staphylococcus aureus = conditions: catheters of ethylvinyl acetate and polypropylene, up to 2.0 wt %, rabbits
# Bacteroides intermedius = conditions: Oral Bacteria
# Lactobacilli = conditions: Oral Bacteria, strain not given
structure (smiles),measurement,setting,value
Oc1cc(Cl)ccc1Oc1ccc(Cl)cc1Cl [Triclosan],Minimum inhibitory Triclosan concentration,"Veillonella parvula; Fresh isolate from human plaque, Colgate-Palmolive data, strain 1167",6.2 µg/mL
same,Minimum inhibitory Triclosan concentration,"Veillonella parvula; Fresh isolate from human plaque, Colgate-Palmolive data, strain 1459",2.3 µg/mL
same,Minimum inhibitory Triclosan concentration,"Veillonella parvula; Oral Bacteria, laboratory strain NCTC",5.4 µg/mL
same,effectiveness against Staphylococcus epidermidis,[1],effectiveness
same,Minimum inhibitory Triclosan concentration,P. acnes,2.3 µg/mL
same,Minimum inhibitory Triclosan concentration,Staphlococcus aureus; strain ATCC9144,0.05 µg/mL
same,Minimum inhibitory Triclosan concentration,Staphlococcus aureus; strain ATCC29213,<0.125 µg/mL
same,Minimum inhibitory Triclosan concentration,Staphlococcus aureus; strain NCTC11150,0.02 µg/mL
same,Minimum inhibitory Triclosan concentration,Staphlococcus aureus; strain NCTC12232,0.01 µg/mL
same,Minimum inhibitory Triclosan concentration,"Actinomyces viscosus; Fresh isolate from human plaque, Colgate-Palmolive data, strain 1218",0.8 µg/mL
same,Minimum inhibitory Triclosan concentration,"Actinomyces viscosus; Oral Bacteria, laboratory strain NCTC10951",0.8 µg/mL
same,Minimum inhibitory Triclosan concentration,"Actinomyces viscosus; Oral Bacteria, laboratory strain T14V",5.0 µg/mL
same,leaching,[2],high leaching
same,Minimum inhibitory Triclosan concentration,C. ochracea,<0.4 µg/mL
same,Triclosan release in water,[3],0.02 ppm
same,solubility (sparingly soluble),at 20 C°,0.001 grams per liter
same,Triclosan water solubility,at 37 C. °,Triclosan water solubility approximately 30 ug/ml at 37 C. °
same,water solubility,at 50 C°,40 µg/mL
same,Minimum inhibitory Triclosan concentration,[4],3.1 µg/mL
same,Minimum inhibitory Triclosan concentration,[5],<0.125 µg/mL
same,amount ingested without ill effect,Laboratory rats,greater than 5000 mg/Kg
same,Minimum inhibitory Triclosan concentration,Escherichia coli [6]; strain ATCC9661,0.3 µg/mL
same,Minimum inhibitory Triclosan concentration,Escherichia coli [6]; strain ATCC43888,0.1 µg/mL
same,Minimum inhibitory Triclosan concentration,Escherichia coli [6]; strain NCTC8196,0.02 µg/mL
same,Minimum inhibitory Triclosan concentration,Escherichia coli [6]; strain NCTC11186,0.5 µg/mL
same,Minimum inhibitory Triclosan concentration,Staphlococcus hyicus,0.03 µg/mL
same,Minimum inhibitory Triclosan concentration,Actinomyces naeslundi; laboratory strain 12104,1.0 µg/mL
same,Minimum inhibitory Triclosan concentration,Actinomyces naeslundi; laboratory strain A,1.0 µg/mL
same,Minimum inhibitory Triclosan concentration,W. recta,0.8 µg/mL
same,Minimum inhibitory Triclosan concentration,[7],<0.6 µg/mL
same,Minimum inhibitory Triclosan concentration,Bacteroides gingivalis,2.5 µg/mL
same,Minimum inhibitory Triclosan concentration,Salmonella enteritidis,0.1 µg/mL
same,effectiveness against Escherichia coli,Escherichia coli [8],effectiveness
same,Minimum inhibitory Triclosan concentration,Candida albicans; strain A,10.0 µg/mL
same,Minimum inhibitory Triclosan concentration,Candida albicans; strain ATCC10259,3.0 µg/mL
same,Minimum inhibitory Triclosan concentration,Steptococcus sanguis,2.0 µg/mL
same,Minimum inhibitory Triclosan concentration,[9],3.0 µg/mL
same,Minimum inhibitory Triclosan concentration,"Fusobacterium nucleatum; Fresh isolate from human plaque, Colgate-Palmolive data, strain 1446",0.8 µg/mL
same,Minimum inhibitory Triclosan concentration,"Fusobacterium nucleatum; Oral Bacteria, laboratory strain NCTC10562",1.2 µg/mL
same,Minimum inhibitory Triclosan concentration,Listeria monocytogenes,1.0 µg/mL
same,Minimum inhibitory Triclosan concentration,P. anaerobius; strain 580,0.6 µg/mL
same,Minimum inhibitory Triclosan concentration,P. anaerobius; strain 1198,2.3 µg/mL
same,Minimum inhibitory Triclosan concentration,Streptococcus mutans [10],5.0 µg/mL
same,Minimum inhibitory Triclosan concentration,S. milleri; strain 1339,2.3 µg/mL
same,Minimum inhibitory Triclosan concentration,S. milleri; strain 1391,2.3 µg/mL
same,Minimum inhibitory Triclosan concentration,Steptococcus sobrinus,11.0 µg/mL
same,Minimum inhibitory Triclosan concentration,[11],5.0 µg/mL
same,Minimum inhibitory Triclosan concentration,Actinomyces israeli,1.0 µg/mL
same,Minimum inhibitory Triclosan concentration,Porphyromonas gingivalis,2.0 µg/mL
same,Minimum inhibitory Triclosan concentration,S. mitior; strain 1384,2.3 µg/mL
same,Minimum inhibitory Triclosan concentration,S. mitior; strain 1387,2.3 µg/mL
same,Minimum inhibitory Triclosan concentration,Capnocytophaga spp; strain 287,0.8 µg/mL
same,Minimum inhibitory Triclosan concentration,Capnocytophaga spp; strain 290,2.3 µg/mL
same,Minimum inhibitory Triclosan concentration,Capnocytophaga spp; strain 310,0.8 µg/mL
same,Minimum inhibitory Triclosan concentration,Staphlococcus hominus,1.0 µg/mL
same,Minimum inhibitory Triclosan concentration,[12],0.1 µg/mL
same,Minimum inhibitory Triclosan concentration,[13]; strain 1426,<0.3 µg/mL
same,Minimum inhibitory Triclosan concentration,[13]; strain 1483,<0.3 µg/mL
same,Streptococcus mutans formation and adhesion,Streptococcus mutans [14],reduced Streptococcus mutans formation and adhesion
same,Minimum inhibitory Triclosan concentration,"[15]; Fresh isolate from human plaque, Colgate-Palmolive data, strain 1041",0.8 µg/mL
same,Minimum inhibitory Triclosan concentration,"[15]; Fresh isolate from human plaque, Colgate-Palmolive data, strain 1431",0.8 µg/mL
same,Minimum inhibitory Triclosan concentration,"[15]; Oral Bacteria, laboratory strain NCTC9935",0.8 µg/mL
same,Minimum inhibitory Triclosan concentration,Pseudomonas aeruginosa; strain ATCC12055,>1000 µg/mL
same,Minimum inhibitory Triclosan concentration,Pseudomonas aeruginosa; strain NCTC8060,>1000 µg/mL
same,Minimum inhibitory Triclosan concentration,Streptococcus mitor; laboratory strain NCTC7864,0.8 µg/mL
same,Minimum inhibitory Triclosan concentration,Streptococcus mitor; laboratory strain NCTC10712,1.1 µg/mL
same,effectiveness against Staphylococcus aureus,Staphylococcus aureus,effectiveness
same,Minimum inhibitory Triclosan concentration,Bacteroides intermedius; laboratory strain 581,2.5 µg/mL
same,Minimum inhibitory Triclosan concentration,Bacteroides intermedius; laboratory strain NCTC9336,0.4 µg/mL
same,Minimum inhibitory Triclosan concentration,Lactobacilli,33.0 µg/mL
